Type in all cases: in vivo
In experiment [1] the test system is complexes myoélectriques intestinaux. In words: Effects of melatoninergic ligands on intestinal myoelectric complexes in the rat (electrodes implanted on the intestinal wall). The settings on record: male Wistar rats. On the procedure: Des rats mâles Wistar adultes placés en cycle lumière/obscurité 12h/12h sont implantés sous anesthésie d'électrodes sur la paroi de l'intestin afin d'enregistrer l'activité myoélectrique. Les rats ont un accès limité (30 min) à la nourriture pendant la période diurne.
Les composés de l'invention agonistes mélatoninergiques ou la mélatonine sont administrés par voie intraveineuse à la dose de 1 mg/kg, 10 min avant le repas. […] Ces complexes myoélectriques apparaissent tout d'abord sur le duodénum avec un délai de 50 min puis ils se propagent sur le jéjunum et l'iléon.

For experiment [2], the system named is durée de la réponse postprandiale. In words: Effects of melatoninergic ligands on the duration of the postprandial response (irregular intestinal motor activity) in the rat. The settings on record: male Wistar rats, 30 min before access to food. On the procedure: Chez le rat, la durée de la réponse postprandiale évaluée par l'activité motrice irrégulière intestinale, est plus courte en période d'obscurité que pendant la période diurne et ceci pour une même quantité d'aliments ingérés. Afin de confirmer que cette diminution de la durée pouvait être due à la sécrétion nocturne de mélatonine, le protocole suivant a été réalisé : des rats mâles Wistar adultes habitués à un cycle lumière/obscurité 12h/12h sont implantés sous anesthésie d'électrodes sur la paroi de l'intestin afin d'enregistrer l'activité myoélectrique. Les rats ont un accès limité (30 min) à la nourriture soit pendant la période nocturne soit pendant la période diurne. Les molécules de l'invention sont administrées 30 min avant l'accès à la nourriture. Le paramètre évalués dans ces études est la durée de l'activité irrégulière motrice. Les périodes de complexes myoélectriques ne sont pas prises en compte dans le cas d'induction par la molécule testée.

Experiment [3] relates to inflammation intestinale induite par l'indométhacine. In words: Indomethacin-induced intestinal inflammation model in the rat. To be noted: male Wistar rats, 50 mg/kg ip ten minutes before each of two indomethacin doses (7,5 mg/kg sc, 24 h apart). From the text: L'inflammation intestinale induite par administration d'indométhacine chez le rat est considérée comme un modèle animal physiopathologique présentant des modifications du comportement et de la motricité intestinale similaires à celles observées chez les patients atteints de la maladie de Crohn (Yamada T. et al, 1993, Mechanisms of acute and chronic intestinal inflammation induces by indomethacin, Inflammation, 17-6, 641-62; Gurbuz V. et al, 1999, Role of nitric oxide in indomethacin-induced gastric mucosal dysfunction in the rat, Experimental Physiology, 84, 319-332; Chen K. et al, 1999, Expression of NO II and its role in the experimental small bowel ulceration in rats, Surgery, 126, 553-561).
Des rats mâles Wistar adultes placés en cycle lumière/obscurité 12h/12h sont implantés sous anesthésie d'électrodes sur la paroi de l'intestin afin d'enregistrer l'activité myoélectrique. Les animaux sont divisés en plusieurs groupes.
Le groupe de rats témoins reçoit deux administrations d'indométhacine (7,5 mg/kg sc) espacées de 24 h. Les autres groupes de rats sont prétraités par la mélatonine ou un ligand mélatoninergique (50 mg/kg ip) dix minutes avant les deux administrations d'indométhacine.
Les animaux sont suivis sur le plan comportemental (prise alimentaire), physiologique (aspect du pelage, diarrhées) et motricité intestinale.

For the molecule `CCc1ccc2scc(CCNC(C)=O)c2c1` [N-[2-(5-éthyl-1-benzothiophèn-3-yl)éthyl]acétamide], in experiment [1] (antagonist pretreatment 2 mg/kg subcutaneous, 30 min before the agonist), the “blocage de l'induction des complexes myoélectriques par l'agoniste” value was “empêche toute formation de complexe myoélectrique”. The “durée de la réponse postprandiale nocturne” value in experiment [2] (given 5 h after onset of darkness) was “entraîne un allongement de la réponse postprandiale qui devient d'une durée équivalente à la réponse observée le jour”.
Consider `COc1ccc2[nH]cc(CCNC(C)=O)c2c1` [mélatonine], for which the “apparition de complexes myoélectriques pendant la réponse motrice postprandiale” value in experiment [1] (1 mg/kg intravenous, 10 min before the meal, daytime feeding (30 min access)) is “induisent l'apparition de complexes myoélectriques pendant la réponse motrice postprandiale”. Also, the “délai d'apparition des complexes myoélectriques sur le duodénum” value in experiment [1] (1 mg/kg intravenous, 10 min before the meal, complexes then propagate to jejunum and ileum) was 50 min. In experiment [2] (100 µg/kg intravenous, given 4 h after onset of light), the “durée de la réponse postprandiale diurne” value is “réduit la durée de la réponse postprandiale et la ramène à une durée de type nocturne”. In addition, the “symptômes de l'inflammation intestinale (diarrhées, perte de poils, prise alimentaire, motricité intestinale)” value in experiment [3] is reported as “ne présentent plus de diarrhées, de perte de poils, de diminution de la prise alimentaire et de la motricité intestinale”.
